Laboratory results as given in article PMC7504435, “Combined Protein- and Ligand-Observed NMR Workflow to Screen Fragment Cocktails against Multiple Proteins: A Case Study Using Bromodomains” (Molecules, 2020).
“And” between values parts separate entries of the source, which are not always exact repeats. Equal entries are not always repeated.

Legend:
PfGCN5 bromodomain [1] = target: T1, PfGCN5 bromodomain (Plasmodium falciparum, UniProt Q8IB67); experiment: biochemical; assay type: binding
Protocol: The screening workflow consists of two dependent steps: 1) a PrOF NMR screen of the 5FW-labeled proteins and a cocktail of 4–5 fragments in a single NMR tube; 2) a ^1H CPMG NMR binding assay to deconvolute the hit mixtures for each protein (Figure 1). In the first step, a dual-protein PrOF NMR spectrum was obtained in which 5FW-PfGCN5, 5FW-BPTF (~ 50 µM each) and mixtures of fragments (400 µM individual fragment) were present in the same NMR tube. […] Chemical shift perturbations indicating a ligand binding event were based on a prior cutoff of Δδ ≥ 0.030 ppm as the definition for a hit mixture. This cutoff was based on a statistical analysis of chemical shift perturbations from a prior BRD4 D1 fragment screen and are described further in the experimental section and in Table S2.
PrOF NMR. PrOF NMR spectra were obtained on a Bruker Avance III HD 500 with the 5 mm Prodigy TCI inverse cryoprobe (^19F S:N 2000:1). […] The DMSO concentration for all experiments was kept constant at 1%. […] For the PrOF NMR screen, 5FW-BPTF and 5FW-PfGCN5 (35–40 µM in 50 mM phosphate, 100 mM NaCl, pH 7.4) were tested with mixtures of 4–5 fragments, where each individual fragment was 400 µM. […] A 10 Hz line broadening was applied. Titrations were fit to Equation (2), where p is the protein concentration and L is the ligand concentration. (2) Δδ=Δδmax × (Kd+P+L ) − (((Kd + P + L )^2) − 4PL)/2P
A PrOF NMR binding event is characterized as a change in chemical shift (Δδ) from the protein-only spectrum to the protein + fragment mixture spectrum. We used a prior cutoff of Δδ ≥ 0.030 ppm as the definition of a hit mixture, based on a statistical analysis of chemical shift perturbations from a prior BRD4 D1 fragment screen.

PfGCN5 bromodomain [2] = target: T1, PfGCN5 bromodomain; experiment: 1H-15N HSQC NMR titration with PfGCN5; assay type: binding
Text: To cross-validate our findings, ^1H-^15N HSQC NMR was used to further examine the binding mode of 9 to PfGCN5 in the presence and absence of known ligands. The ^1H-^15N HSQC spectrum of PfGCN5 is unassigned. For ease of spectral interpretation, all resonances that were distinctly visible were assigned as 1-64. Fragment 9, GSK4027, and the acetylated peptide H2A.Z II K7,13ac were titrated against PfGCN5. At the highest ligand concentration, resonances with Δδ > x^− + 0.60*s, where x^− is the mean and s is the standard deviation at the highest concentration, were defined as significant. The correction factor of 0.60 is to compensate for only 60% of the resonances being usable for analysis. Titration of 9 with PfGCN5 gave linear and non-linear dose-dependent chemical shift perturbations. Of the five resonances with non-linear movement, only one (10) was considered to have significant movement. […] This affinity with the non-fluorine-labeled protein is similar but higher than the affinity determined by PrOF NMR. […]
^1H-^15N SOFAST HSQC.^1H-^15N SOFAST HSQC spectra were obtained on a Bruker 600 MHz Avance NEO with a CryoProbe 5 mm TCI (^1H, ^13C, ^15N, ^2H) w/ Z-gradient using Bruker’s IBS_SOFAST.x method with 32 scans, 0.05 s acquisition time, and 0.2 s delay. […] Data were processed with nmrDraw, nmrPipe, and NFRAM Sparky. Δδ^1H-^15N was calculated using Equation (3). […]

BPTF bromodomain = BPTF bromodomain (Homo sapiens, UniProt Q12830); design: against the bromodomains of BPTF and Plasmodium falciparum GCN5 (PfGCN5); his6; made in house; conditions: cited from earlier work
BRD4 D1 = conditions: data from previous screen; cited from earlier work

T1 sequence (Q8IB67 entry or part of it): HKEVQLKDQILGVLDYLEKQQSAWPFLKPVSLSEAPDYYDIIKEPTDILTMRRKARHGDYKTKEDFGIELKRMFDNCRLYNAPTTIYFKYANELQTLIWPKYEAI

Structure (SMILES): Nc1ccc2c(c1)N(C(=O)C1CC1)CCC2 [Fragment 9]
- ligand efficiency (LE) (PfGCN5 bromodomain [1]; PfGCN5, from Kd = 16 µM): 0.43
- Kd (PfGCN5 bromodomain [1]; PfGCN5 Kd, PrOF NMR titration, for 9 average of W1454 and W1379, NS = non-saturating): 17 µM and 16 µM
- Initial Mixture PfGCN5 PrOF NMR Δδ (PfGCN5 bromodomain [1]; hit mixture containing the fragment, 400 µM each fragment): ++++ (++++ = Δδ > 0.2)
- selectivity, binds PfGCN5 over BPTF (PfGCN5 bromodomain [1]; ratio of Kd values): 9 fold
- Kd (PfGCN5 bromodomain [2]): 7.5 µM
- single-point PrOF NMR Δδ with BPTF (BPTF bromodomain; 400 µM 9, previous screen): 0.453 ppm
- Kd (BPTF bromodomain; via PrOF NMR): 180 µM
- Kd (BRD4 D1): 50 µM
